From ChEMBL document CHEMBL2021880, “An Invitation to Open Innovation in Malaria Drug Discovery: 47 Quality Starting Points from the TCAMS” (ACS Med Chem Lett, 2011)

Experiments:
Plasmodium falciparum = experiment: Antimalarial activity against Plasmodium falciparum 3D7 A infected in red blood cells assessed as inhibition of [3H]hypoxanthine incorporation after 24 hrs by scintillation counting; format: functional, organism-based
[1] = Clearance in mouse microsomes at 0.5 uM; format: ADME, Microsome
[2] = Clearance in human microsomes at 0.5 uM; format: ADME, Microsome
[3] = molecular target: Voltage-gated inwardly rectifying potassium channel KCNH2 (Homo sapiens, UniProt Q12809); experiment: Displacement of Cy3b-dofetilide from human ERG expressed in CHO cells by fluorescence polarization assay
Chain of Voltage-gated inwardly rectifying potassium channel KCNH2 (Q12809 whole entry): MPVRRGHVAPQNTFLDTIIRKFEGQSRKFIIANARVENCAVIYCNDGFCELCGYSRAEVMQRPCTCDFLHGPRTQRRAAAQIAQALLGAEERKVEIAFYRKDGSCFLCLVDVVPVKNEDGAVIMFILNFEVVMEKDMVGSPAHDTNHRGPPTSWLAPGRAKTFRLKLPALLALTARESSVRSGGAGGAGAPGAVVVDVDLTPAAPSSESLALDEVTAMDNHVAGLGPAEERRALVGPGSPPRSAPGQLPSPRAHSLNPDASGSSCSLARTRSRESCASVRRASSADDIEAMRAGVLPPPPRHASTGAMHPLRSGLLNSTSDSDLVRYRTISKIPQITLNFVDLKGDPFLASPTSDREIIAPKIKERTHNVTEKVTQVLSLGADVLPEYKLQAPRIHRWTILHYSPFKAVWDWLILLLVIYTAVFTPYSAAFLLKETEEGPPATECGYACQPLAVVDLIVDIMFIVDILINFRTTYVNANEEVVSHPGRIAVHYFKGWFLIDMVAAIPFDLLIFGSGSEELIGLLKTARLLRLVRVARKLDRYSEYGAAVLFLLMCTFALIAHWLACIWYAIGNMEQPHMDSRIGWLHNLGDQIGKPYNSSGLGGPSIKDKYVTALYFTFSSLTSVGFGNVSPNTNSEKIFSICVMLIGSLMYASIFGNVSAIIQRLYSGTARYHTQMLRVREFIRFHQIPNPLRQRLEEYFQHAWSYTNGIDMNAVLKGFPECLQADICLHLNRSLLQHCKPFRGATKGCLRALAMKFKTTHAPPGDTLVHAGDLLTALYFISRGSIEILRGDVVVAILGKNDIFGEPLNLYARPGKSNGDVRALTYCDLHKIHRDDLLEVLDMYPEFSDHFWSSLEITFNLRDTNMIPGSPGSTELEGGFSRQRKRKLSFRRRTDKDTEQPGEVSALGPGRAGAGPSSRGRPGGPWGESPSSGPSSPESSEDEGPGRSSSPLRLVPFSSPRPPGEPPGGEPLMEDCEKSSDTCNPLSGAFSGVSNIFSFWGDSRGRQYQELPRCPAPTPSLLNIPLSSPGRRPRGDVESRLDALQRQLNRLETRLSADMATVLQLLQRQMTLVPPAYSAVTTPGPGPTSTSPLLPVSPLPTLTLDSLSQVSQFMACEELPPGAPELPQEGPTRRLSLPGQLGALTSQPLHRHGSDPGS

| Structure (SMILES) | IC50 (Plasmodium falciparum) [nM] | CL [1] [mL/min/g] | CL [2] [mL/min/g] | INH [3] [µM] | XC50 (Plasmodium falciparum) [nM] |
| --- | --- | --- | --- | --- | --- |
| O=C(Nc1cc(C(F)(F)F)ccc1-n1cncn1)C1(c2ccccc2)CC1 | 30 | < 0.8 | < 0.3 |  |  |
| CN(C)CCNC(=O)c1cc2c(-c3ccc(Cl)cc3)nn(C)c2s1 | 950 | 4 | 0.3 | 6.3 |  |
| COc1cc2c(cc1C(F)(F)F)N(C(=O)Nc1cc(OC(F)(F)F)cc(-c3cccnc3)c1)CC2 | 80 | < 0.3 | < 0.3 | > 15 | 40 |
| Cc1cc(C(=O)NC2CCN(CC3(c4ccc(Cl)cc4)CCC3)CC2)on1 | 80 | 5.6 | 18.8 |  | 90 |
| CC(C)(C)c1cc(C(=O)N2CCN(c3ncccc3C(F)(F)F)CC2)n(Cc2ccccc2)n1 | 100 | > 30 | 12.7 | > 50 |  |
